The subject of this series is rodent carcinogenicity bioassays, tumor incidence. Put plainly: CCRIS carcinogenicity studies. The method, boiled down:
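Archive of carcinogenicity, mutagenicity, tumor promotion and tumor inhibition results drawn from journals, NCI reports and other sources, expert-reviewed; covers 1985-2011 and is no longer updated.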

Activity calls are given as the source filed them. The rule behind the calls is not given here.

Turning to `O=C(O)c1ccc(N=Nc2ccc(O)c(C(=O)O)c2)cc1`, the carcinogen call runs as follows: (Species: MOUSE, Strain/Sex: NMRI/FEMALE, Route: ORAL, Dose: 0, 100, 300, 900 MG/KG BW/D IN DIET FOR 107 WK (HIGH DOSE INCREASED TO 1800 MG/KG BW FROM WK 21) (STUDY DURATION: 107 WK, Dose: 0, 100, 300, 900 MG/KG BW/D IN DIET FOR 107 WK (HIGH DOSE INCREASED TO 1800 MG/KG BW FROM WK 21) (STUDY DURATION: 107 WK) “inactive; negative”; (Species: MOUSE, Strain/Sex: NMRI/MALE, Route: ORAL, Dose: 0, 100, 300, 900 MG/KG BW/D IN DIET FOR 120 WK (HIGH DOSE INCREASED TO 1800 MG/KG BW FROM WK 21) (STUDY DURATION: 120 WK, Dose: 0, 100, 300, 900 MG/KG BW/D IN DIET FOR 120 WK (HIGH DOSE INCREASED TO 1800 MG/KG BW FROM WK 21) (STUDY DURATION: 120 WK) “inactive; negative”; (Species: RAT, Strain/Sex: SPRAGUE-DAWLEY/MALE, Route: ORAL, Dose: 0, 300, 900, 2700 MG/KG BW/D IN DIET FOR 118 WK (HIGH DOSE REDUCED TO 1800 MG/KG BW FROM WK 68) (STUDY DURATION: 118 WK), Dose: 0, 300, 900, 2700 MG/KG BW/D IN DIET FOR 118 WK (HIGH DOSE REDUCED TO 1800 MG/KG BW FROM WK 68) (STUDY DURATION: 118 WK)) “inactive; negative”; (Species: RAT, Strain/Sex: SPRAGUE/DAWLEY/FEMALE, Route: ORAL, Dose: 0, 300, 900, 2700 MG/KG BW/D IN DIET FOR 119 WK (HIGH DOSE REDUCED TO 1800 MG/KG BW FROM WK 68) (STUDY DURATION: 119 WK), Dose: 0, 300, 900, 2700 MG/KG BW/D IN DIET FOR 119 WK (HIGH DOSE REDUCED TO 1800 MG/KG BW FROM WK 68) (STUDY DURATION: 119 WK)) “inactive; negative”.
With `Cc1cc(C)c(N)cc1C`, the carcinogen call is, setting by setting: (Species: MOUSE, Strain/Sex: B6C3F1/FEMALE, Route: ORAL, Dose: 0, 50, 100 PPM IN DIET FOR 101 WK (STUDY DURATION: 101 WK), Dose: 0, 50, 100 PPM IN DIET FOR 101 WK (STUDY DURATION: 101 WK), Tumor Site: Type of Lesion: LIVER: HEPATOCELLULAR CARCINOMA) “active; positive”; (Species: MOUSE, Strain/Sex: B6C3F1/MALE, Route: ORAL, Dose: 0, 50, 100 PPM IN DIET FOR 101 WK (STUDY DURATION: 101 WK), Dose: 0, 50, 100 PPM IN DIET FOR 101 WK (STUDY DURATION: 101 WK), Tumor Site: Type of Lesion: LIVER: HEPATOCELLULAR CARCINOMA) “equivocal”; (Species: RAT, Strain/Sex: F344/FEMALE, Route: ORAL, Dose: 0, 200, 800 PPM IN DIET FOR 101 WK (STUDY DURATION: 101 WK), Dose: 0, 200, 800 PPM IN DIET FOR 101 WK (STUDY DURATION: 101 WK), Tumor Site: Type of Lesion: LUNG: ALVEOLAR/BRONCHIOLAR ADENOMA OR CARCINOMA, LIVER: HEPATOCELLULAR CARCINOMA OR NEOPLASTIC NODULE) “active; positive”; (Species: RAT, Strain/Sex: F344/MALE, Route: ORAL, Dose: 0, 200, 800 PPM IN DIET FOR 101 WK (STUDY DURATION: 101 WK), Dose: 0, 200, 800 PPM IN DIET FOR 101 WK (STUDY DURATION: 101 WK), Tumor Site: Type of Lesion: LIVER: BILE DUCT CARCINOMA, HEPATOCELLULAR CARCINOMA OR NEOPLASTIC NODULE) “active; positive”.
As for `C=C/C=N/O`, the carcinogen call was “inactive; negative” (Species: HAMSTER, Strain/Sex: SYRIAN/MALE, Route: GAVAGE, Dose: 0, 2 MG/WK FOR 53 WK (STUDY DURATION: 92 WK)); “inactive; negative” (Species: RAT, Strain/Sex: F344/FEMALE, Route: ORAL, Dose: 0, 320 MG/L IN DRINKING WATER 5 D/WK FOR 100 WK (STUDY DURATION: 130 WK)); “inactive; negative” (Species: RAT, Strain/Sex: F344/FEMALE, Route: ORAL, Dose: 0, 800 MG/L IN DRINKING WATER 5 D/WK FOR 30 WK (STUDY DURATION: 130 WK)); “inactive; negative” (Species: RAT, Strain/Sex: F344/MALE, Route: ORAL, Dose: 0, 320 MG/L IN DRINKING WATER 5 D/WK FOR 100 WK (STUDY DURATION: 130 WK)); “inactive; negative” (Species: RAT, Strain/Sex: F344/MALE, Route: ORAL, Dose: 0, 800 MG/L IN DRINKING WATER 5 D/WK FOR 30 WK (STUDY DURATION: 130 WK)).
For `C#C[C@]1(O)CC[C@H]2[C@@H]3CCC4=C(CCC(=O)C4)[C@H]3CC[C@@]21C`, the carcinogen call is “active; positive” (Species: MOUSE, Route: ORAL, Tumor Site: Type of Lesion: MAMMARY GLAND, PITUITARY GLAND) and “active; positive” (Species: RAT, Route: ORAL, Tumor Site: Type of Lesion: LIVER, MAMMARY GLAND, PITUITARY GLAND, Tumor Site: Type of Lesion: LIVER, MAMMARY GLAND, PITUITARY GLAND).
As for `CCN=[N+](C)[O-]`, the carcinogen call (Species: RAT, Strain/Sex: F344/MALE, Route: ORAL, Dose: 0, 12, 48 MG/ML IN A NEUTRAL DEIONIZED DRINKING WATER SOLUTION 5 D/WK FOR 30 WK (TOTAL DOSE 36; 144 MG) (STUDY DURATION:, Dose: 0, 12, 48 MG/ML IN A NEUTRAL DEIONIZED DRINKING WATER SOLUTION 5 D/WK FOR 30 WK (TOTAL DOSE 36; 144 MG) (STUDY DURATION:, Tumor Site: Type of Lesion: LIVER: CARCINOMA, HEMANGIOSARCOMA, KIDNEY: TUMOR) was “active; positive”.
Take `CC1=C[C@H]2O[C@@H]3[C@H](O)C[C@](C)([C@@]2(CO)[C@H](O)C1=O)[C@]31CO1`: the carcinogen call is “inactive; negative” (Species: MOUSE, Strain/Sex: B6C3F1/FEMALE, Route: ORAL, Dose: 0, 1, 5, 10 PPM IN DIET FOR 2 YR (STUDY DURATION: 2 YR), Dose: 0, 1, 5, 10 PPM IN DIET FOR 2 YR (STUDY DURATION: 2 YR)) and “inactive; negative” (Species: MOUSE, Strain/Sex: B6C3F1/MALE, Route: ORAL, Dose: 0, 1, 5, 10 PPM IN DIET FOR 2 YR (STUDY DURATION: 2 YR), Dose: 0, 1, 5, 10 PPM IN DIET FOR 2 YR (STUDY DURATION: 2 YR)).
Take `Cc1cccc2ccccc12`: the carcinogen call was “inactive; negative” (Species: MOUSE, Strain/Sex: B6C3F1/FEMALE, Route: ORAL, Dose: 0, 0.075, 0.15% IN DIET FOR 81 WK (STUDY DURATION: 81 WK), Dose: 0, 0.075, 0.15% IN DIET FOR 81 WK (STUDY DURATION: 81 WK)) and “active; positive” (Species: MOUSE, Strain/Sex: B6C3F1/MALE, Route: ORAL, Dose: 0, 0.075, 0.15% IN DIET FOR 81 WK (STUDY DURATION: 81 WK), Dose: 0, 0.075, 0.15% IN DIET FOR 81 WK (STUDY DURATION: 81 WK), Tumor Site: Type of Lesion: LUNG: ADENOMA).
Take `COc1ccc(C(=O)Nc2c(Cl)cncc2Cl)cc1OC1CCCC1`: the carcinogen call (Species: RAT, Strain/Sex: SPRAGUE-DAWLEY/FEMALE, Route: INHALATION, Dose: 0, 0.125, 0.5, 1.0 MG/KG BW/D 1 HR/D IN A DRY-POWDER FORMULATION WITH LACTOSE VEHICLE USING A NOSE-ONLY AEROSOL EXPOSURE, Dose: 0, 0.125, 0.5, 1.0 MG/KG BW/D 1 HR/D IN A DRY-POWDER FORMULATION WITH LACTOSE VEHICLE USING A NOSE-ONLY AEROSOL EXPOSURE, Tumor Site: Type of Lesion: NASAL OLFACTORY REGION: TUMORS) is “active; positive” and the carcinogen call (Species: RAT, Strain/Sex: SPRAGUE-DAWLEY/MALE, Route: INHALATION, Dose: 0, 0.125, 0.5, 1.0 MG/KG BW/D 1 HR/D IN A DRY-POWDER FORMULATION WITH LACTOSE VEHICLE USING A NOSE-ONLY AEROSOL EXPOSURE, Dose: 0, 0.125, 0.5, 1.0 MG/KG BW/D 1 HR/D IN A DRY-POWDER FORMULATION WITH LACTOSE VEHICLE USING A NOSE-ONLY AEROSOL EXPOSURE, Tumor Site: Type of Lesion: NASAL OLFACTORY REGION: TUMORS) was “active; positive”.
On to `FC(F)(F)CCl`, for which the carcinogen call by setting is: (Species: RAT, Strain/Sex: WISTAR/FEMALE, Route: GAVAGE, Dose: 300 MG/KG IN CORN OIL 5/WK FOR 52 WK, Tumor Site: Type of Lesion: UTERUS: ADENOCARCINOMA) “active; positive”; (Species: RAT, Strain/Sex: WISTAR/MALE, Route: GAVAGE, Dose: 300 MG/KG IN CORN OIL 5/WK FOR 52 WK, Tumor Site: Type of Lesion: TESTES: INTERSTITIAL CELL TUMOR) “active; positive”.

Source of the values: PubChem BioAssay AID1259411 (Chemical Carcinogenesis Research Information System (CCRIS), 2018).
